Reference: US6376670B1, “Quinoline-indole antimicrobial agents, uses and compositions related thereto” (Sepracor Inc., priority 1997, dated 2002)
Values after ≈ are worked out from the molar mass of the structure shown.

Tests used:
Test in all cases: Determination of MIC values (BHI broth, 96 well microtiter plate)
Assay type in all cases: cell-based
[1] = system: Streptococcus pneumoniae; settings: BHI broth, 37° C., about 16 hours; for MIC: Streptococcus pneumoniae, read-out: MIC S. pneu
How it was run: (§1)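 MIC is read as the lowest drug concentration showing no observable growth after roughly 16 hours at 37° C in approx. 7-10% CO2. Testing used BHI broth containing compound at 0.39–25 µg/mL final, inoculated with 10^5 to 10^6 cells/mL.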

[2] = system: vancomycin-resistant Enterococcus spp. (VRE); settings: BHI broth, 37° C., about 16 hours; for MIC: Enterococcus, VRE, 16 h, read-out: MIC VREF
How it was run: as §1

[3] = system: methicillin-resistant Staphylococcus aureus (MRSA); settings: BHI broth, 37° C., about 16 hours; for MIC: Staphylococcus aureus, MRSA, 16 h, read-out: MIC MRSA
How it was run: as §1

SMILES	MIC [1] [µg/mL]	MIC [2] [µg/mL]	MIC [3] [µg/mL]	MIC S. pneu [1] [µg/mL]	MIC VREF [2] [µg/mL]	MIC MRSA [3] [µg/mL]
COc1ccc2[nH]cc(-c3cc(Cl)c4ccc(Cl)cc4n3)c2c1 [Example 464]	< 7	> 25	< 7			
Cc1[nH]c2ccc(Cl)cc2c1-c1cc(Cl)c2ccccc2n1 [Example 465]	< 7	< 25	< 7			
Cc1ccc2nc(-c3c(C)[nH]c4ccccc34)ccc2c1 [Example 466]	< 25	> 25	> 25			
Cc1ccc2nc(-c3c[nH]c4c(C)cccc34)ccc2c1 [Example 467]	> 25	> 25	> 25			
Cc1ccc2nc(-c3c[nH]c4ccc(O)cc34)ccc2c1 [Example 468]	> 25	> 25	25 (≈ 91.1 µM)			
Cc1ccc2nc(-c3c[nH]c4ccc(OCc5ccccc5)cc34)ccc2c1 [Example 469]	< 7	> 25	< 7			
OCc1[nH]c2ccc(Cl)cc2c1-c1cc(Cl)c2ccccc2n1 [Example 470]	> 25	> 25	> 25			
Cc1[nH]c2ccccc2c1-c1ccc2cccc(C)c2n1 [Example 472]	< 25	> 25	< 25			
Cc1[nH]c2ccc(Cl)cc2c1-c1cc(Cl)c2ccc(Cl)cc2n1 [Example 473]	< 7	< 25	< 7			
Clc1ccc2c(Cl)cc(-c3c[nH]c4ccc(Cl)cc34)nc2c1 [Example 475]	< 7	< 7	< 7			
Cc1cccc2c(-c3cc(Cl)c4ccc(Cl)cc4n3)c[nH]c12 [Example 476]	< 25	> 25	> 25			
Clc1ccc2c(Cl)cc(-c3c[nH]c4ccc(OCc5ccccc5)cc34)nc2c1 [Example 477]	< 7	> 25	< 7			
Cc1ccc2ccc(-c3c[nH]c4cc(F)ccc34)nc2c1 [Example 478]	> 25	> 25	> 25			
COc1ccc2[nH]cc(-c3ccc4ccc(C)cc4n3)c2c1 [Example 479]	< 25	> 25	> 25			
COc1ccc2nc(-c3c[nH]c4ccccc34)ccc2c1 [Example 480]	> 25	> 25	> 25			
Cc1ccc2nc(-c3c[nH]c4ccccc34)ccc2c1 [Example 481]	> 25	> 25	> 25			
Clc1ccc2c(Cl)cc(-c3c[nH]c4ccccc34)nc2c1 [Example 482]	< 7	< 7	< 7			
NC(=O)c1cc(-c2c[nH]c3ccc(Br)cc23)nc2ccc(C#CCN3CCCCC3)cc12 [Example 483]	< 7	< 7	< 7			
Clc1ccc2nc(-c3c[nH]c4ccc(Cl)cc34)ccc2c1 [Example 484]		> 25	< 7	< 7		

SMILES	MIC [1] [µg/mL]	MIC [2] [µg/mL]	MIC [3] [µg/mL]	MIC S. pneu [1] [µg/mL]	MIC VREF [2] [µg/mL]	MIC MRSA [3] [µg/mL]
COc1ccc(NC(=O)c2cc(-c3c[nH]c4ccc(Br)cc34)nc3ccc(C#CCN4CCCCC4)cc23)cc1 [Example 485]	< 25	> 25	< 7			
COC(=O)c1cc(-c2c[nH]c3ccc(Br)cc23)nc2cc(F)ccc12 [Example 486]	< 7	< 7	< 7			
NCCNC(=O)c1cc(-c2c[nH]c3ccc(Br)cc23)nc2cc(Cl)ccc12 [Example 487]	< 7	< 7	< 7			
OCc1cc(-c2c[nH]c3ccc(Br)cc23)nc2cc(F)ccc12 [Example 490]				< 7	>25	< 7
OCc1cc(-c2c[nH]c3ccc(Br)cc23)nc2ccc(Cl)cc12 [Example 491]				< 7	>25	< 7
OCc1cc(-c2c[nH]c3ccc(Br)cc23)nc2cc(Cl)ccc12 [Example 492]				< 7	<25	< 7
NCc1ccc(CNC(=O)c2cc(-c3c[nH]c4cc(F)ccc34)nc3cc(F)ccc23)cc1 [Example 493]	< 25	< 25	< 25			
NCc1cccc(CNC(=O)c2cc(-c3c[nH]c4cc(F)ccc34)nc3cc(F)ccc23)c1 [Example 494]	< 7	< 7	< 7			
NCCCNC(=O)c1cc(-c2c[nH]c3cc(F)ccc23)nc2cc(F)ccc12 [Example 495]	< 25	> 25	< 25			
NCCCCNC(=O)c1cc(-c2c[nH]c3cc(F)ccc23)nc2cc(F)ccc12 [Example 496]	< 25	> 25	< 25			
NCCCCCNC(=O)c1cc(-c2c[nH]c3cc(F)ccc23)nc2cc(F)ccc12 [Example 497]	< 25	< 25	< 25			
O=C(c1cc(-c2c[nH]c3cc(F)ccc23)nc2cc(F)ccc12)N1CCNCC1 [Example 498]	< 25	> 25	< 25			
CN(C)CCN(C)C(=O)c1cc(-c2c[nH]c3ccc(Br)cc23)nc2ccc(I)cc12 [Example 499]	< 7	< 7	< 7			
CNCCN(C)C(=O)c1cc(-c2c[nH]c3ccc(Br)cc23)nc2ccc(Cl)cc12 [Example 500]	< 7	< 7	< 7			
CNCCN(C)C(=O)c1cc(-c2c[nH]c3ccc(Br)cc23)nc2cc(Cl)ccc12 [Example 501]	< 7	< 7	< 7			
CNCCN(C)C(=O)c1cc(-c2c[nH]c3ccc(Br)cc23)nc2ccc(I)cc12 [Example 502]	< 7	< 7	< 7			
Clc1ccc2nc(-c3c[nH]c4ccc(Br)cc34)c3c(c2c1)OCCC3 [Example 503]	< 25	> 25	< 7			
CN(C)CCN(C)C(=O)c1cc(-c2c[nH]c3ccc(Br)cc23)nc2cc(Cl)ccc12 [Example 505]	< 7	< 7	< 7			
CNCCN(C)C(=O)c1cc(-c2cn(C)c3ccc(Br)cc23)nc2cc(Cl)ccc12 [Example 506]	< 7	< 7	< 7			

SMILES	MIC [1] [µg/mL]	MIC [2] [µg/mL]	MIC [3] [µg/mL]	MIC S. pneu [1] [µg/mL]	MIC VREF [2] [µg/mL]	MIC MRSA [3] [µg/mL]
CN(C)CCN(C)C(=O)c1cc(-c2cn(C)c3ccc(Br)cc23)nc2cc(Cl)ccc12 [Example 507]	< 7	< 7	< 7			
Fc1ccc2c(CCl)cc(-c3c[nH]c4ccc(Br)cc34)nc2c1 [Example 508]	< 7	< 7	< 7			
NCc1cc(-c2c[nH]c3ccc(Br)cc23)nc2cc(F)ccc12 [Example 509]	< 7	< 7	< 7			
NCc1cc(-c2c[nH]c3ccc(Br)cc23)nc2cc(Cl)ccc12 [Example 511]	< 7	< 7	< 7			
CN(C)CCN(C)C(=O)c1cc(-c2c[nH]c3ccc(Br)cc23)nc2cc(Cl)c(C#CCN3CCCCC3)cc12 [Example 512]	< 7	< 7	< 7			
CNCCN(C)C(=O)c1cc(-c2c[nH]c3ccc(Br)cc23)nc2cc(Cl)c(C#CCN3CCCCC3)cc12 [Example 513]	< 7	< 7	< 7			
COc1ccc(NC(=O)NCc2cc(-c3c[nH]c4ccc(Br)cc34)nc3cc(Cl)ccc23)cc1 [Example 514]	< 7	> 25	< 7			
O=C(O)c1cc(-c2c[nH]c3ccc(Br)cc23)nc2cc(Cl)c(C#CCN3CCCCC3)cc12 [Example 516]	< 7	< 25	< 7			
Brc1ccc2[nH]cc(-c3nc4ccc(C#CCN5CCCCC5)cc4c4c3CCO4)c2c1 [Example 517]	< 7	> 25	< 7			
OCc1cc(-c2c[nH]c3ccc(Br)cc23)nc2cc(Cl)c(C#CCN3CCCCC3)cc12 [Example 518]	< 7	< 7	< 7			
CC(C)CNC(=O)c1cc(-c2c[nH]c3ccc(Br)cc23)nc2ccc(C#CCN3CCCCC3)cc12 [Example 519]	< 7	> 25	< 7			
CN(CC[N+](C)(C)C)C(=O)c1cc(-c2c[nH]c3ccc(Br)cc23)nc2cc(Cl)ccc12 [Example 520]	< 7	< 7	< 7			
CC(C)(C)NC(=O)NCc1cc(-c2c[nH]c3ccc(Br)cc23)nc2cc(Cl)ccc12 [Example 521]	< 7	> 25	< 7			
N#CCc1cc(-c2c[nH]c3ccc(Br)cc23)nc2cc(Cl)ccc12 [Example 522]	< 7	< 25	< 7			
NCCNC(=O)c1cc(-c2c[nH]c3ccc(Br)cc23)nc2ccc(C#CCO)cc12 [Example 523]	< 7	< 7	< 7			
O=C(NCc1cc(-c2c[nH]c3ccc(Br)cc23)nc2cc(Cl)ccc12)NC1CCCCC1 [Example 524]	< 7	< 7	< 7			
NCCNC(=O)c1cc(-c2c[nH]c3ccc(Br)cc23)nc2ccc(C#CCN3CCSCC3)cc12 [Example 525]	< 7	< 7	< 7			
NCCNC(=O)c1cc(-c2c[nH]c3ccc(Br)cc23)nc2ccc(C#CCN3CC=CCC3)cc12 [Example 526]	< 7	< 7	< 7			
